Assay results taken from patent US20170246176A1, “PHACOSCLEROSIS INHIBITOR” (KEIO UNIVERSITY, priority 2014, published 2017).

Key:
[1] = system: hardening of crystalline lens due to exposure to mainstream smoke in rat; test: Measurement of crystalline lens hardness after smoking treatment; assay type: in vivo, Sprague-Dawley (SD) rats; conditions: male SD rats, smoking treatment 12 days; instillation 5 μL per eye, once before and 3 times after smoking treatment; 0.1% tiopronin or 0.005% pirenoxine (Catalin); Dunnett method, p<0.01
Protocol: (§1) Male 6-8-week-old Sprague-Dawley (SD) rats were divided into 4 groups, each group with 4 rats, and they were used as a nonsmoking treatment group (NT), a smoking treatment group (Smoking), a smoking treatment+0.1% tiopronin instillation group (S+0.1% Tiopronin), and a smoking treatment +0.005% pirenoxine instillation group (S+Catalin).
Tiopronin (Thiola Tab. 100, manufactured by Mylan EPD) was prepared to provide an active ingredient amount of 0.1 w/v %, whereby an ophthalmic solution was produced. Catalin For Ophthalmic 0.005% (manufactured by Senju Pharmaceutical Co., Ltd.) was used for the 0.005% pirenoxine instillation group. Each eye was instilled with 5 μL per instillation. […]
The smoking treatment was performed as follows by reference to the method of Higuchi et al. (Free Radic. Biol. Med., 2011, Vol. 51, pages 2210-2216). […] The body weight of the rats that underwent the smoking treatment for 12 days and the nonsmoking group was measured, and cornea, lacrimal gland, crystalline lens were harvested. […] Of the rats that underwent the smoking treatment, the instillation group (S+Tiopronin, S+Catalin) and the noninstillation group (Smoking) were compared for the fluorescence score.
The crystalline lens isolated from the eyeball in Example 1 was measured for the crystalline lens hardness by the following method. […]

[2] = system: cornea state of the rat exposed to mainstream smoke; test: Fluorescent staining of cornea after smoking treatment by exposure to mainstream smoke; assay type: in vivo, Sprague-Dawley (SD) rats; conditions: male SD rats, smoking treatment 12 days, instillation 5 μL per eye, once before and 3 times after smoking treatment, 0.1% tiopronin or 0.005% pirenoxine (Catalin)
Protocol: as §1
Tiopronin (Thiola Tab. 100, manufactured by Mylan EPD) was prepared to provide an active ingredient amount of 0.1 w/v %, whereby an ophthalmic solution was produced. Catalin For Ophthalmic 0.005% (manufactured by Senju Pharmaceutical Co., Ltd.) was used for the 0.005% pirenoxine instillation group. Each eye was instilled with 5 μL per instillation. Instillation was performed for 12 days, once before the following smoking treatment and 3 times after the treatment.
The smoking treatment was performed as follows by reference to the method of Higuchi et al. (Free Radic. Biol. Med., 2011, Vol. 51, pages 2210-2216). Rats were placed in a smoking chamber and 300 mL of mainstream smoke was added into the chamber with a syringe. Male 6-8-week-old SD rats (maximum 12 rats) were placed in a smoking chamber (60 cm×40 cm×35 cm) produced for the experiment, and fresh air was supplied into the chamber with an air pump. Tobacco (Seven Star. (registered trade mark)) was set on a 50 mL syringe, and the mainstream smoke was sucked and blown into the chamber. This suction operation was repeated 6 times, a total 300 mL of the mainstream smoke was added into the chamber, and the rats were left standing for 30 min while delivering fresh air by the pump. A similar operation was repeated 5 times more (total 6 times), thereby exposing the rats to the mainstream smoke for 3 hr in total per day. […] The body weight of the rats that underwent the smoking treatment for 12 days and the nonsmoking group was measured, and cornea, lacrimal gland, crystalline lens were harvested. […] Of the rats that underwent the smoking treatment, the instillation group (S+Tiopronin, S+Catalin) and the noninstillation group (Smoking) were compared for the fluorescence score.

SMILES | hardness of the crystalline lens (weight divided by distance), vs smoking treatment group [1] | fluorescent staining score of cornea (corneal state), instillation group vs noninstillation smoking group [2] | fluorescent staining score of cornea (corneal state), instillation group vs noninstillation smoking group ([2]; listed as Catalin)
O=C(O)c1cc(O)c2c3nc4ccccc4oc-3cc(=O)c2n1 [pirenoxine, 1-hydroxy-5-oxo-5H-pyrido[3,2-α]phenoxazine-3-carboxylic acid] | an increase in the hardness was significantly suppressed | showed a tendency toward improvement | exacerbation of the corneal state due to instillation was not found
CC(S)C(=O)NCC(=O)O (centres unmarked) [tiopronin, N-(2-mercaptopropionyl)glycine] | an increase in the hardness was significantly suppressed | exacerbation of the corneal state due to instillation was not found | 
